# Values of other authors in patent US20060018956A1, “Dermal application system for aminolevulinic acid-derivatives” (priority 2002, published 2006).
# Conditions: fresh ALA solution, approximate physiological value of 8, after just two weeks
structure (smiles),measurement,value
"NCC(=O)CCC(=O)O [ALA, 5-aminolaevulinic acid]",undecomposed active substance,approx. 10%
